Consider one compound from US20100104669A1, “Method for preparing an aqueous solution containing triterpenic acid, aqueous solution containing triterpenic acid, and use thereof” (priority 2008, published 2010).

Series [1] can be described thus: triterpenic acid content of basic aqueous solution (trisodium phosphate extraction, Example 1). To be noted: water with trisodium phosphate, extracted at 120° C. and >2 bar, cooled to room temperature, filtered through 0.22 μm filter. The class given is physicochemical. The protocol:
Dried annual shoots of mistletoe were extracted with n-heptane at 120° C. and >2 bar pressure. The precipitate obtained upon cooling of the extraction agent was composed of more than 60% oleanolic acid and more than 3% betulinic acid. The triterpenic acid-rich powder thus obtained was extracted with water in the presence of trisodium phosphate at 120° C. and >2 bar pressure to produce a supersaturated basic solution.
The basic triterpenoid-rich solution, cooled to room temperature and filtered through a 0.22 μm filter, contained more than 80 μg/mL oleanolic acid and more than 8 μg/mL betulinic acid. The basic solution thus prepared was then adjusted to pH 7.4 using an aqueous phosphoric acid solution, in the presence of 1.6 μg/mL polysaccharides which had been obtained from mistletoe berries. The extent of dilution and the solvent quantities were selected in such a way that the salt concentration of the neutralized triterpenic acid-rich solution was between 5 and 140 mM.

Series [2] can be described thus: triterpenic acid content of basic aqueous solution with cyclodextrins (Example 4). Type of series: physicochemical. The note with it: water with trisodium phosphate (10 mM) and 2 mg/mL cyclodextrins, 120° C. and >2 bar. How it is done: The triterpenoid-rich powder described in Example 1 was extracted with water in the presence of trisodium phosphate (10 mM) and 2 mg/mL cyclodextrins at 120° C. and >2 bar.
The basic triterpenic acid-rich solution contained more than 100 μg/mL oleanolic acid and more than 8 μg/mL betulinic acid. The basic solution thus prepared was then adjusted to pH 7.4 using an aqueous phosphoric acid solution. The extent of dilution and the solvent quantities were selected in such away that the salt concentration of the neutralized triterpenic acid-rich solution was between 5 and 140 mM.

As to `CC1(C)CC[C@]2(C(=O)O)CC[C@]3(C)C(=CC[C@@H]4[C@@]5(C)CC[C@H](O)C(C)(C)[C@@H]5CC[C@]43C)[C@@H]2C1` [oleanolic acid], the “content in basic triterpenoid-rich solution” value in series [1] is “more than 80 μg/mL”. Besides, the “content in basic triterpenic acid-rich solution” value in series [2] is “more than 100 μg/mL”.
